Values after ≈ are worked out from the molar mass of the structure shown.
What was measured:
[1] = target: T1, E. coli K12 PBP3 (Escherichia coli, UniProt P0AD68); assay: biochemical; type: binding
T1 construct: made in house
Summary of the method: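 Fluorescence polarization (ex 490/em 520 nm) competition of inhibitors against Bocillin-FL at 0.1 μM, read up to 60 min. Final PBP levels: E. coli PBP3 1.5 μM; A. baumannii PBP2 2.5 μM, PBP3 0.2 μM in Tris pH 8.0/NaCl/glycerol/Tween 20; N. gonorrhoeae PBP2 […] in Hepes pH 8.0/NaCl/glycerol. EC50 = concentration halving PBP-bound Bocillin-FL.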

[2] = system: N. gonorrhoeae WHO L; assay: Liquid broth MIC in Fastidious broth; type: cell-based; conditions: Neisseria gonorrhoeae; N. gonorrhoeae strain WHO L; Fastidious broth; read-out: Minimum Inhibitory Concentration, N. gonorrhoeae WHO L
Procedure: (§1) Example V: In Vitro Antibacterial Assays for N. gonorrhoeae Strains
(§2) Additional antibacterial testing of the series was performed in 8 reference strains of N. gonorrhoeae (ATCC 49226, FA1090, WHO G, WHO L, WHO K, H041, WHO Z, and WHO Q). ATCC 49226, FA1090, WHO G, and WHO L produce wild type or wild-type like PBP2. WHO K, H041, WHO Z, and WHO Q produce mosaic PBP2. Liquid broth-based assays were used for antibacterial testing of PBP inhibitors in Neisseria gonorrhoeae. Briefly, cryo-preserved bacterial cultures of clinical strains were streaked for isolation on Chocolate Agar (72 g/L (2×) GC Agar Base (BD #228950) and 2% (2×) Hemoglobin was autoclaved at 121° C. for 20 minutes to sterilize. Once cooled to ˜50° C. the 2× GC Agar Base and 2× Hemoglobin solutions are combined and 1% IsoVitaleX Enrichment (BD #211876) was added to the solution). Strains were incubated at 36° C. and 5% CO2 to allow growth of colonies, 24 hours before inoculum preparation. 2-fold serial dilutions of test compounds were conducted in a 96 well plate with a final volume of 75 μL per well at 2-fold the final desired concentration in Fastidious broth (Remel #R07664). For preparation of assay inoculum, a direct suspension was prepared by aseptically swabbing all colonies from agar plates into culture tubes containing 2 mL of fresh sterile saline. After the dilution plates were set up, direct suspensions were then diluted in a cuvette containing sterile saline and the optical density was measured at 600 nm. Inocula were diluted such that 75 μL of this culture in Fastidious broth results in a starting bacterial concentration of 5×10^5 CFU/mL when added to the dilution plates. The plates were incubated for ˜24 hours at 36° C. and 5% CO2. The MIC was read visually as the lowest concentration well with <10% bacterial growth compared to wells of full growth.

[3] = system: N. gonorrhoeae H041; assay: Liquid broth MIC in Fastidious broth; type: cell-based; conditions: Neisseria gonorrhoeae, H041, read-out: Minimum Inhibitory Concentration, N. gonorrhoeae H041
Procedure: as §1, §2

[4] = system: N. gonorrhoeae ATCC 49226; assay: Liquid broth MIC in Fastidious broth; type: cell-based; conditions: Neisseria gonorrhoeae, ATCC49226; N. gonorrhoeae strain ATCC 49226; Fastidious broth; read-out: Minimum Inhibitory Concentration, N. gonorrhoeae ATCC 49226
Procedure: as §1, §2

[5] = system: N. gonorrhoeae FA1090; assay: Liquid broth MIC in Fastidious broth; type: cell-based; conditions: Neisseria gonorrhoeae; N. gonorrhoeae strain FA1090; Fastidious broth; read-out: Minimum Inhibitory Concentration, N. gonorrhoeae FA1090
Procedure: as §1, §2

[6] = system: N. gonorrhoeae WHO K; assay: Liquid broth MIC in Fastidious broth; type: cell-based; conditions: Neisseria gonorrhoeae, read-out: Minimum Inhibitory Concentration, N. gonorrhoeae WHO K
Procedure: as §1, §2

[7] = system: N. gonorrhoeae WHO G; assay: Liquid broth MIC in Fastidious broth; type: cell-based; conditions: Neisseria gonorrhoeae; N. gonorrhoeae strain WHO G; Fastidious broth; read-out: Minimum Inhibitory Concentration, N. gonorrhoeae WHO G
Procedure: as §1, §2

T1 sequence (P0AD68 1-577): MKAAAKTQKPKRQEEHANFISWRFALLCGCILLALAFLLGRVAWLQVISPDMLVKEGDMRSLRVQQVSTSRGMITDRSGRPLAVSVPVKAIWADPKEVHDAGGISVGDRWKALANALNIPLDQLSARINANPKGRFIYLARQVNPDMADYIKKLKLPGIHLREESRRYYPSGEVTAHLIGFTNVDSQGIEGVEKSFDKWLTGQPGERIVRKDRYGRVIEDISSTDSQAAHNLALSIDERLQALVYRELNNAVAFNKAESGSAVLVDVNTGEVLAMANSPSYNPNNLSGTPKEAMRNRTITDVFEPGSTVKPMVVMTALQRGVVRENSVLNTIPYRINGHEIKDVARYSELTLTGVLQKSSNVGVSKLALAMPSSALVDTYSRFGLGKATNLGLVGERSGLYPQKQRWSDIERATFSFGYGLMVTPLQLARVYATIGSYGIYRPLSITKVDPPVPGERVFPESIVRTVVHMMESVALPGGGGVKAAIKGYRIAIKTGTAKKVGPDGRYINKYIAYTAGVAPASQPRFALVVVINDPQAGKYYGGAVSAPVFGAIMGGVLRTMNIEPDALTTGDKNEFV

Compound: CCN1CCN(C(=O)NC(C(=O)N[C@H]2Cc3cccc(C(=O)O)c3OB2O)c2cc(O)cc(O)c2)C(=O)C1=O (mixture of isomers) [Example 79, (3R)-3-(2-(3,5-dihydroxyphenyl)-2-(4-ethyl-2,3-dioxopiperazine-1-carboxamido)acetamido)-2-hydroxy-3,4-dihydro-2H-benzo[e][1,2]oxaborinine-8-carboxylic acid]
- EC50 [1]: 30 to 500 µM
- MIC [2]: 16 to 32 µg/mL
- MIC [3]: 16 to 32 µg/mL
- MIC [4]: 1 to 2 µg/mL
- MIC [5]: < 0.125 µg/mL
- MIC [6]: 16 to 32 µg/mL
- MIC [7]: 1 to 2 µg/mL

Compound: NCCN1CCN(C(=O)N[C@@H](C(=O)N[C@H]2Cc3ccc(F)c(C(=O)O)c3OB2O)c2c(F)cc(O)c(O)c2Cl)C(=O)C1=O (single isomer, unassigned) [Example 26]
- EC50 [1]: < 30 µM
- MIC [2]: > 64 µg/mL
- MIC [3]: > 64 µg/mL
- MIC [4]: > 64 µg/mL
- MIC [5]: 16 to 32 µg/mL (≈ 25.6 to 51.1 µM)
- MIC [6]: > 64 µg/mL
- MIC [7]: > 64 µg/mL

Compound: NCCCN1CCN(C(=O)N[C@@H](C(=O)N[C@H]2Cc3ccc(F)c(C(=O)O)c3OB2O)c2c(F)cc(O)c(O)c2Cl)C(=O)C1=O (single isomer, unassigned) [Example 27]
- EC50 [1]: < 30 µM
- MIC [2]: > 64 µg/mL
- MIC [3]: > 64 µg/mL
- MIC [4]: > 64 µg/mL
- MIC [5]: 16 to 32 µg/mL (≈ 25 to 50 µM)
- MIC [6]: > 64 µg/mL
- MIC [7]: 16 to 32 µg/mL (≈ 25 to 50 µM)

Compound: NCCCN1CCN(C(=O)N[C@H](C(=O)N[C@H]2Cc3ccc(F)c(C(=O)O)c3OB2O)c2ccc(O)c(O)c2Cl)C(=O)C1=O (single isomer, unassigned) [Example 28]
- EC50 [1]: 30 to 500 µM
- MIC [2]: > 64 µg/mL
- MIC [3]: > 64 µg/mL
- MIC [4]: > 64 µg/mL
- MIC [5]: > 64 µg/mL
- MIC [6]: > 64 µg/mL
- MIC [7]: > 64 µg/mL

Compound: O=C(O)c1c(F)ccc2c1OB(O)[C@@H](NC(=O)[C@H](NC(=O)N1CCNC1=O)c1c(F)cc(O)c(O)c1Cl)C2 (single isomer, unassigned) [Example 34]
- EC50 [1]: < 30 µM
- MIC [2]: > 64 µg/mL
- MIC [3]: > 64 µg/mL
- MIC [4]: 16 to 32 µg/mL (≈ 28.8 to 57.7 µM)
- MIC [5]: 4 to 8 µg/mL (≈ 7.21 to 14.4 µM)
- MIC [6]: > 64 µg/mL
- MIC [7]: 16 to 32 µg/mL (≈ 28.8 to 57.7 µM)

Compound: CS(=O)(=O)N1CCN(C(=O)N[C@@H](C(=O)N[C@H]2Cc3ccc(F)c(C(=O)O)c3OB2O)c2c(F)cc(O)c(O)c2Cl)C1=O (single isomer, unassigned) [Example 35]
- EC50 [1]: < 30 µM
- MIC [2]: > 64 µg/mL
- MIC [3]: > 64 µg/mL
- MIC [4]: 16 to 32 µg/mL (≈ 25.3 to 50.6 µM)
- MIC [5]: 4 to 8 µg/mL (≈ 6.32 to 12.6 µM)
- MIC [6]: > 64 µg/mL
- MIC [7]: 16 to 32 µg/mL (≈ 25.3 to 50.6 µM)

Compound: NCCN1CCN(C(=O)N[C@@H](C(=O)N[C@H]2Cc3ccc(F)c(C(=O)O)c3OB2O)c2c(F)cc(O)c(O)c2F)C(=O)C1=O (single isomer, unassigned) [Example 40]
- EC50 [1]: < 30 µM
- MIC [2]: > 64 µg/mL
- MIC [3]: > 64 µg/mL
- MIC [4]: 16 to 32 µg/mL (≈ 26.3 to 52.5 µM)
- MIC [5]: 4 to 8 µg/mL (≈ 6.57 to 13.1 µM)
- MIC [6]: > 64 µg/mL
- MIC [7]: 16 to 32 µg/mL (≈ 26.3 to 52.5 µM)

Compound: NCCCN1CCN(C(=O)N[C@@H](C(=O)N[C@H]2Cc3ccc(F)c(C(=O)O)c3OB2O)c2c(F)cc(O)c(O)c2F)C(=O)C1=O (single isomer, unassigned) [Example 41]
- EC50 [1]: < 30 µM
- MIC [2]: > 64 µg/mL
- MIC [3]: > 64 µg/mL
- MIC [4]: 16 to 32 µg/mL (≈ 25.7 to 51.3 µM)
- MIC [5]: 4 to 8 µg/mL (≈ 6.42 to 12.8 µM)
- MIC [6]: > 64 µg/mL
- MIC [7]: 16 to 32 µg/mL (≈ 25.7 to 51.3 µM)

Compound: CCN1CCN(C(=O)N[C@H](C(=O)N[C@H]2Cc3cccc(C(=O)O)c3OB2O)c2cc(O)cc(O)c2)C(=O)C1=O (single isomer, unassigned) [Example 81]
- EC50 [1]: > 500 µM
- MIC [2]: 16 to 32 µg/mL (≈ 29.6 to 59.2 µM)
- MIC [3]: 16 to 32 µg/mL (≈ 29.6 to 59.2 µM)
- MIC [4]: 4 to 8 µg/mL (≈ 7.4 to 14.8 µM)
- MIC [5]: 0.25 to 0.5 µg/mL (≈ 0.463 to 0.925 µM)
- MIC [6]: 16 to 32 µg/mL (≈ 29.6 to 59.2 µM)
- MIC [7]: 0.25 to 0.5 µg/mL (≈ 0.463 to 0.925 µM)

Compound: CCN1CCN(C(=O)N[C@@H](C(=O)N[C@H]2Cc3cccc(C(=O)O)c3OB2O)c2cc(O)cc(O)c2)C(=O)C1=O (single isomer, unassigned) [Example 82]
- EC50 [1]: 30 to 500 µM
- MIC [2]: 16 to 32 µg/mL (≈ 29.6 to 59.2 µM)
- MIC [3]: 4 to 8 µg/mL (≈ 7.4 to 14.8 µM)
- MIC [4]: 4 to 8 µg/mL (≈ 7.4 to 14.8 µM)
- MIC [5]: < 0.125 µg/mL
- MIC [6]: 4 to 8 µg/mL (≈ 7.4 to 14.8 µM)
- MIC [7]: 0.25 to 0.5 µg/mL (≈ 0.463 to 0.925 µM)

Compound: NCCN1CCN(C(=O)N[C@H](C(=O)N[C@H]2Cc3cccc(C(=O)O)c3OB2O)c2ccc(C(=O)O)cc2)C(=O)C1=O (single isomer, unassigned) [Example 83]
- EC50 [1]: 30 to 500 µM
- MIC [2]: > 64 µg/mL
- MIC [3]: > 64 µg/mL
- MIC [4]: 16 to 32 µg/mL (≈ 28.2 to 56.4 µM)
- MIC [5]: 1 to 2 µg/mL (≈ 1.76 to 3.53 µM)
- MIC [6]: > 64 µg/mL
- MIC [7]: 4 to 8 µg/mL (≈ 7.05 to 14.1 µM)

Compound: NCCN1CCN(C(=O)N[C@@H](C(=O)N[C@H]2Cc3cccc(C(=O)O)c3OB2O)c2ccc(C(=O)O)cc2)C(=O)C1=O (single isomer, unassigned) [Example 84]
- EC50 [1]: < 30 µM
- MIC [2]: 16 to 32 µg/mL (≈ 28.2 to 56.4 µM)
- MIC [3]: > 64 µg/mL
- MIC [4]: 4 to 8 µg/mL (≈ 7.05 to 14.1 µM)
- MIC [5]: 1 to 2 µg/mL (≈ 1.76 to 3.53 µM)
- MIC [6]: 16 to 32 µg/mL (≈ 28.2 to 56.4 µM)
- MIC [7]: 1 to 2 µg/mL (≈ 1.76 to 3.53 µM)

Compound: NCCN1CCN(C(=O)N[C@H](C(=O)N[C@H]2Cc3cccc(C(=O)O)c3OB2O)c2ccc(O)cc2Cl)C(=O)C1=O (single isomer, unassigned) [Example 85]
- EC50 [1]: 30 to 500 µM
- MIC [2]: > 64 µg/mL
- MIC [3]: > 64 µg/mL
- MIC [4]: > 64 µg/mL
- MIC [5]: 4 to 8 µg/mL (≈ 6.97 to 13.9 µM)
- MIC [6]: > 64 µg/mL
- MIC [7]: > 64 µg/mL

Compound: NCCN1CCN(C(=O)N[C@@H](C(=O)N[C@H]2Cc3cccc(C(=O)O)c3OB2O)c2ccc(O)cc2Cl)C(=O)C1=O (single isomer, unassigned) [Example 86]
- EC50 [1]: < 30 µM
- MIC [2]: > 64 µg/mL
- MIC [3]: > 64 µg/mL
- MIC [4]: > 64 µg/mL
- MIC [5]: 1 to 2 µg/mL (≈ 1.74 to 3.49 µM)
- MIC [6]: > 64 µg/mL
- MIC [7]: 4 to 8 µg/mL (≈ 6.97 to 13.9 µM)

Compound: CCN1CCN(C(=O)NC(C(=O)N[C@H]2Cc3ccc(S)c(C(=O)O)c3OB2O)c2csc(N)n2)C(=O)C1=O (stereo partly drawn) [Example 54, (3R)-3-(2-(2-aminothiazol-4-yl)-2-(4-ethyl-2,3-dioxopiperazine-1-carboxamido)acetamido)-2-hydroxy-7-mercapto-3,4-dihydro-2H-benzo[e][1,2]oxaborinine-8-carboxylic acid]
- EC50 [1]: 30 to 500 µM

Compound: CCN1CCN(C(=O)NC(C(=O)N[C@H]2Cc3ccc(SCc4ccc(O)cc4)c(C(=O)O)c3OB2O)c2csc(N)n2)C(=O)C1=O (stereo partly drawn) [Example 55, (3R)-3-(2-(2-aminothiazol-4-yl)-2-(4-ethyl-2,3-dioxopiperazine-1-carboxamido)acetamido)-2-hydroxy-7-((4-hydroxybenzyl)thio)-3,4-dihydro-2H-benzo[e][1,2]oxaborinine-8-carboxylic acid]
- EC50 [1]: 30 to 500 µM

From US20230114728A1 (Venatorx Pharmaceuticals, Inc., priority 2019, published 2023)
